{
  "source": "paper PMC5441580",
  "about": "“GPR40 partial agonist MK-2305 lower fasting glucose in the Goto Kakizaki rat via suppression of endogenous glucose production” (PLoS ONE, 2017)",
  "key": {"GK rats [1]": {"test_system": "GK rats", "assay": "GK rat chronic efficacy, compound in feed for 20 days", "format": "in vivo", "details": "for Fasted blood glucose / Fasted plasma insulin: individual animals; for Morning (fed) Blood Glucose: MK-2305 10 mpk in feed; for decrease in fed glucose vs. vehicle: p < 0.05", "procedure": "At the start of the study, fed glucose was measured at 8 A.M., and animals were selected and sorted into treatment groups based on ambient glucose (n = 10/male GK group, n = 6/male WKY control group). […] Fed blood glucose, food intake, and body weights were determined on days 0, 1, 3, 7, and 14 of study at 8 A.M. On days 7 and 14, food was removed for 5 h and plasma glucose was measured. Percent inhibitions were calculated as the percent reduction of blood glucose from the average value for vehicle controls. On day 14, blood was collected from the tail vein (20 μl) after the morning glucose measurement and after 5 h fast from a subset of n = 3 rats per treatment group to determine the ambient and fasted exposure of the compounds in circulation. The blood was stored at 4°C in 0.1 M sodium monocitrate for subsequent analysis. Animals were then re-fed their respective diet treatments. On day 20 of treatment at 8 A.M., blood glucose was measured and then animals were euthanized via CO2 asphyxiation. Blood and liver tissue were sampled, processed, and stored at -80°C until analysis.\nPlasma was analyzed for triglycerides, NEFA, and HbA1C using a P Modular Roche Clinical Chemistry analyzer. Liver triglycerides were extracted as described by Bligh and Dyer, and were measured using the Infinity triglyceride assay kit (Thermo Scientific, Rockford, IL). Plasma insulin levels were measured via EIA (Mesoscale Discovery ELISA Kit, Gaithersburg MD)."}, "GK rats [2]": {"test_system": "GK rats", "assay": "GK rat chronic efficacy, compound in feed for 20 days", "format": "in vivo", "details": "Day 7, ~6 hrs after food removal; 10mpk; chronic study; individual animals; 10 mg/kg"}, "GK rats [3]": {"test_system": "GK rats", "assay": "OGTT with insulin co-measurement on Day 13 of chronic treatment, parallel set of animals", "format": "in vivo, rat", "set-up": "unit not given here", "details": "Time 10, individual animals"}},
  "note": "Where “and” joins values, the source holds several entries; their conditions need not be identical. Equal entries are not always repeated.",
  "data": [
    {"smiles": "O=C1NC(=O)C(C2CCOc3cc(Oc4ccc(C(F)(F)F)cc4Cl)ccc32)S1", "note": "(stereo not shown) [MK-2305]", "values": [
      {"measurement": "Fasted blood glucose", "setting": "GK rats [1]; Day 7, ~6 hrs after food removal, 30mpk, chronic study, 30 mg/kg", "result": "110 mg/dl (2×) and 125 mg/dl and 135 mg/dl and 103 mg/dl and 141 mg/dl and 118 mg/dl (2×) and 114 mg/dl"},
      {"measurement": "Fasted plasma insulin", "setting": "GK rats [1]; Day 7, 10mpk, 10 mg/kg", "result": "405.2 pg/mL and 91.1 pg/mL and 88.1 pg/mL and 159.3 pg/mL and 284.1 pg/mL and 97.1 pg/mL and 80.9 pg/mL and 605.6 pg/mL and 106.3 pg/mL"},
      {"measurement": "Fasted plasma insulin", "setting": "GK rats [1]; Day 7, 30mpk, 30 mg/kg", "result": "199.5 pg/mL and 58.7 pg/mL and 102.1 pg/mL and 88.8 pg/mL and 104.2 pg/mL and 182.8 pg/mL and 66.3 pg/mL and 259.0 pg/mL and 51.6 pg/mL"},
      {"measurement": "Fasted plasma insulin", "setting": "GK rats [1]; Day 14, 10mpk, 10 mg/kg", "result": "66.8 pg/mL and 405.9 pg/mL and 135.1 pg/mL and 49.4 pg/mL and 1589.0 pg/mL and 353.3 pg/mL and 247.1 pg/mL and 127.3 pg/mL and 158.9 pg/mL"},
      {"measurement": "Fasted plasma insulin", "setting": "GK rats [1]; Day 14, 30mpk, 30 mg/kg", "result": "80.8 pg/mL and 3482.1 pg/mL and 77.9 pg/mL and 794.5 pg/mL and 102.8 pg/mL and 430.5 pg/mL and 972.9 pg/mL and 1169.4 pg/mL and 1639.6 pg/mL"},
      {"measurement": "NEFA (mEq/L)", "setting": "GK rats [1]; MK2305 @ 10, 20 days of treatment, individual GK rats", "result": "0.23 mEq/L and 0.33 mEq/L and 0.26 mEq/L and 0.5 mEq/L and 0.19 mEq/L and 0.37 mEq/L and 0.32 mEq/L"},
      {"measurement": "NEFA (mEq/L)", "setting": "GK rats [1]; MK2305 @ 30, 20 days of treatment, individual GK rats", "result": "0.21 mEq/L and 0.43 mEq/L and 0.24 mEq/L and 0.45 mEq/L and 0.39 mEq/L and 0.38 mEq/L and 0.22 mEq/L and 0.34 mEq/L"},
      {"measurement": "Morning (fed) Blood Glucose", "setting": "GK rats [1]; Day 0 (start of study), individual GK rats, 10 mg/kg", "result": "184 mg/dL and 260 mg/dL and 210 mg/dL and 227 mg/dL and 237 mg/dL and 193 mg/dL and 200 mg/dL and 191 mg/dL and 179 mg/dL"},
      {"measurement": "Morning (fed) Blood Glucose", "setting": "GK rats [1]; Day 1, individual GK rats, 10 mg/kg", "result": "170 mg/dL and 247 mg/dL and 203 mg/dL and 186 mg/dL and 231 mg/dL and 179 mg/dL and 277 mg/dL and 199 mg/dL and 162 mg/dL"},
      {"measurement": "Morning (fed) Blood Glucose", "setting": "GK rats [1]; Day 3, individual GK rats, 10 mg/kg", "result": "158 mg/dL and 166 mg/dL and 183 mg/dL and 172 mg/dL and 163 mg/dL and 169 mg/dL and 170 mg/dL and 167 mg/dL"},
      {"measurement": "Morning (fed) Blood Glucose", "setting": "GK rats [1]; Day 7, individual GK rats, 10 mg/kg", "result": "150 mg/dL and 185 mg/dL and 138 mg/dL and 158 mg/dL and 179 mg/dL and 152 mg/dL and 224 mg/dL and 161 mg/dL"},
      {"measurement": "Morning (fed) Blood Glucose", "setting": "GK rats [1]; Day 14, individual GK rats, 10 mg/kg", "result": "146 mg/dL and 143 mg/dL and 176 mg/dL and 141 mg/dL and 140 mg/dL and 169 mg/dL and 230 mg/dL"},
      {"measurement": "Morning (fed) Blood Glucose", "setting": "GK rats [1]; Day 20, individual GK rats, 10 mg/kg", "result": "146 mg/dL and 140 mg/dL and 150 mg/dL and 149 mg/dL and 138 mg/dL and 145 mg/dL and 163 mg/dL and 120 mg/dL"},
      {"measurement": "decrease in fed glucose vs. vehicle", "setting": "GK rats [1]; day 3, 10 mg/kg in feed, GK rats", "result": 22, "unit": "%"},
      {"measurement": "decrease in fed glucose vs. vehicle", "setting": "GK rats [1]; day 3, 30 mg/kg in feed, GK rats", "result": 27, "unit": "%"},
      {"measurement": "reduction in fasting blood glucose vs. vehicle", "setting": "GK rats [1]; day 7, 5 hr fast, 10 mg/kg in feed, GK rats", "result": 19, "unit": "%"},
      {"measurement": "reduction in fasting blood glucose vs. vehicle", "setting": "GK rats [1]; day 7, 5 hr fast, 30 mg/kg in feed, GK rats", "result": 19, "unit": "%"},
      {"measurement": "reduction in fasting blood glucose vs. vehicle", "setting": "GK rats [1]; day 14, 5 hr fast, 10 mg/kg in feed, GK rats", "result": 26, "unit": "%"},
      {"measurement": "reduction in fasting blood glucose vs. vehicle", "setting": "GK rats [1]; day 14, 5 hr fast, 30 mg/kg in feed, GK rats", "result": 30, "unit": "%"},
      {"measurement": "effect on circulating HbA1C levels", "setting": "GK rats [1]; day 20, GK rats, all treatment groups", "result": "significantly reduced"},
      {"measurement": "effect on liver triglyceride levels", "setting": "GK rats [1]; day 20, GK rats, vs. vehicle controls", "result": "no effect"},
      {"measurement": "effect on plasma non-esterified fatty acid (NEFA) levels", "setting": "GK rats [1]; day 20, either dose (10, 30 mg/kg), GK rats", "result": "no effect"},
      {"measurement": "effect on fasted plasma insulin", "setting": "GK rats [1]; days 7 and 14, 5 hr fast, GK rats", "result": "no significant effects"},
      {"measurement": "Fasted blood glucose", "setting": "GK rats [1]; second block of the table (day 14 per title), 10mpk, 10 mg/kg", "result": "151 mg/dL and 95 mg/dL and 111 mg/dL and 128 mg/dL and 118 mg/dL and 120 mg/dL and 116 mg/dL and 138 mg/dL and 117 mg/dL"},
      {"measurement": "Fasted blood glucose", "setting": "GK rats [1]; second block of the table (day 14 per title), 30mpk, 30 mg/kg", "result": "112 mg/dl and 113 mg/dl and 108 mg/dl and 115 mg/dl (2×) and 126 mg/dl and 105 mg/dl and 123 mg/dl and 119 mg/dl"},
      {"measurement": "Fasted blood glucose", "setting": "GK rats [2]", "result": "134 mg/dl (2×) and 126 mg/dl and 92 mg/dl and 108 mg/dl and 125 mg/dl and 107 mg/dl (2×) and 150 mg/dl"},
      {"measurement": "Change in plasma insulin from baseline during OGTT (delta insulin)", "setting": "GK rats [3]; Acute, 30 mpk, 30 mg/kg", "result": "1.28 and 1.368 and 1.816 and 3.661 and 3.304 and 1.312 and 2.648 and 2.392 and 0.317 and 1.559"},
      {"measurement": "Change in plasma insulin from baseline during OGTT (delta insulin)", "setting": "GK rats [3]; Chronic, 30 mkd", "result": "1.342 and 0.561 and 1.202 and 1.9 and 1.117 and 1.167 and 2.431 and 1.17 and 1.428 and 0.831"}
    ]}
  ]
}
